Experimental data taken from US10508109B2 (priority 2015, dated 2019).
Where two headings read alike, the source gives them in different places.

Tests used:
A549 = assay: Cell-based assay, anti-proliferative activity (Cell Counting Kit-8, 72 hours); details: Homo sapiens, read-out: IC50 (μM) A549
In short: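 Cells were seeded in 96-well plates and exposed to candidate inhibitors. Cellular growth was then determined with the colorimetric kit, and IC50 values were calculated from the growth data.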

SUV39H2 = SUV39H2 (Homo sapiens (Human), UniProt Q9H5I1); details: read-out: IC50 (μM) Suv 39H2 assay; enzyme assay
CCD-18Co = assay: Cell-based assay, anti-proliferative activity (Cell Counting Kit-8, 72 hours); details: Homo sapiens, read-out: IC50 (μM) CCD-18Co
In short: (§1)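 Cells seeded at 2,000–3,000 per well and exposed 72 h to compound at 0–100 micro-M (2-fold series). Growth measured with CCK-8; IC50 taken as anti-proliferative indicator.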

HFL1 = assay: as above; details: Homo sapiens, read-out: IC50 (μM) HFL1
In short: as §1

PC14 = assay: as above; details: Homo sapiens, read-out: IC50 (μM) PC14
In short: as §1

HCT-116 = assay: as above; details: Homo sapiens, read-out: IC50 (μM) HCT-116
In short: as §1

[1] = A549 cells, Cell Counting Kit-8, 72 hours
[2] = CCD-18Co cells, Cell Counting Kit-8, 72 hours
[3] = HFL1 cells, Cell Counting Kit-8, 72 hours
[4] = PC-14, PC14 cells, Cell Counting Kit-8, 72 hours
[5] = HCT-116 cells, Cell Counting Kit-8, 72 hours

Chain of SUV39H2 (Q9H5I1 whole entry): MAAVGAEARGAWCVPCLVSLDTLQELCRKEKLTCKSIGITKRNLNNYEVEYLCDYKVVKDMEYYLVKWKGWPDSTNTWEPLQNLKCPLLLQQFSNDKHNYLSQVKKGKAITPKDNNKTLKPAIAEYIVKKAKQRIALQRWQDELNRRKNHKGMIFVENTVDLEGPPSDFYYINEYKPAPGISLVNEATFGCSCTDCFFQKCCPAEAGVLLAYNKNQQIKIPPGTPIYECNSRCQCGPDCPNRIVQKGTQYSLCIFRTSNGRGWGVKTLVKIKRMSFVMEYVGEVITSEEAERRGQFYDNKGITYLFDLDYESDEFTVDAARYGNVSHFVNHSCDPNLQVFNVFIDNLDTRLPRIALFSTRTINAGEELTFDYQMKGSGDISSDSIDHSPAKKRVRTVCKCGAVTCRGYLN

SMILES	IC50 (A549; [1]) [µM]	IC50 (SUV39H2) [µM]	IC50 (CCD-18Co; [2]) [µM]	IC50 (HFL1; [3]) [µM]	IC50 (PC14; [4]) [µM]	IC50 (HCT-116; [5]) [µM]	IC50 (A549; A549, 72 h) [µM]	IC50 (CCD-18Co; CCD-18Co, 72 h) [µM]	IC50 (HFL1; HFL1, 72 h) [µM]	IC50 (PC14; PC-14, 72 h) [µM]	IC50 (HCT-116; HCT-116, 72 h) [µM]
CCCS(=O)(=O)N1CCN(c2ccn3cc(-c4cc(Cl)c(OC)cc4OC)nc3n2)CC1 [Example 191, 2-(5-chloro-2,4-dimethoxyphenyl)-7-[4-(propylsulfonyl)piperazin-1-yl]-imidazo[1,2-a]pyrimidine]	1.5	0.0293	3.2	2	1.5	1.9	–	–	–	–	–
COc1cc(OC)c(-c2cn3ccc(N4CCC(NS(C)(=O)=O)CC4)nc3n2)cc1Cl [Example 192, N-(1-(2-(5-chloro-2,4-dimethoxyphenyl)imidazo[1,2-a]pyrimidin-7-yl)-piperidin-4-yl)methanesulfonamide]	10	0.0148	5.3	5.1	10	10	–	–	–	–	–
CCOP(=O)(CCN1CC=C(c2ccn3cc(-c4cc(Cl)c(OC)cc4OC)nc3c2)CC1)OCC [Example 194, diethyl (2-(4-(2-(5-chloro-2,4-dimethoxyphenyl)imidazo[1,2-a]pyridin-7-yl)-5,6-dihydropyridin-1(2H)-yl)ethyl)phosphonate]	9	0.0696	10	10	5.7	8.6	–	–	–	–	–
COc1cc(OC)c(-c2cn3ccc(C4=CCN(P(=O)(OC)OC)CC4)cc3n2)cc1Cl [Example 195, dimethyl{4-[2-(5-chloro-2,4-dimethoxyphenyl)imidazo[1,2-a]pyridin-7-yl]-5,6-dihydropyridin-1(2H)-yl}phosphonate]	–	0.0375	–	–	–	–	0.7	5.5	2.8	0.51	0.93
COc1cc(OCCCN(C)C)c(-c2cn3ccc(N4CCN(S(=O)(=O)N(C)C)CC4)cc3n2)cc1Cl [Example 196, 4-(2-{5-Chloro-2-[3-(dimethylamino)propoxy]-4-methoxyphenyl}imidazo[1,2-a]pyridin-7-yl)-N,N-dimethylpiperazine-1-sulfonamide]	2.1	0.0147	2.8	2.4	1.9	2.2	–	–	–	–	–
COc1cc(OCCCN(C)C)c(-c2cn3ccc(N4CCN(S(=O)(=O)C(C)C)CC4)cc3n2)cc1Cl [Example 197, 3-(4-Chloro-2-(7-(4-(isopropylsulfonyl)piperazin-1-yl)imidazo[1,2-a]pyridin-2-yl)-5-methoxyphenoxy)-N,N-dimethylpropan-1-amine]	3.4	0.0144	2.9	2.9	2.3	3.8	–	–	–	–	–
COc1cc(OC)c(-c2cn3ccc(N4CCC(NP(=O)(OC)OC)CC4)cc3n2)cc1Cl [Example 198, Dimethyl (1-(2-(5-chloro-2,4-dimethoxyphenyl)imidazo[1,2-a]pyridin-7-yl)piperidin-4-yl)phosphoramidate]	3.2	0.00435	3.5	1.6	3.7	5.7	–	–	–	–	–
CCS(=O)(=O)N1CCN(c2ccn3cc(-c4cc(Cl)c(OC)cc4OCCCN(C)C)nc3c2)CC1 [Example 199, 3-(4-chloro-2-(7-(4-(ethylsulfonyl)piperazin-1-yl)imidazo[1,2-a]pyridin-2-yl)-5-methoxyphenoxy)-N,N-dimethylpropan-1-amine]	5.2	0.0168	3.9	4.8	3	6.4	–	–	–	–	–
COc1cc(OC)c(-c2cn3ccc(N4CCCN(S(=O)(=O)N(C)C)CC4)cc3n2)cc1Cl [Example 200, 4-[2-(5-chloro-2,4-dimethoxyphenyl)imidazo[1,2-a]pyridin-7-yl]-N,N-dimethyl-1,4-diazepane-1-sulfonamide]	1.6	0.00674	3	1.7	1.3	2	–	–	–	–	–
